Read-outs that look alike come from different tables or passages of the source.
Assays:
[1] = test system: KP-2: K. pneumonia subsp. pneumonia 0322#; experiment: MIC of silver with antibiotics on clinical isolated MDR Gram-negative bacteria; assay type: cell-based, Klebsiella pneumonia; settings: antibiotic 4 μM
Experimental: There are five clinically most difficult-to-treat MDR Gram-negative pathogen species: Klebsiella pneumonia, Acinetobacter baumannii, Pseudomonas aeruginosa, Enterobacter cloacae and Escherichia coli. One strain from each species was isolated, and overnight cultures were diluted 1:1000 times in LB medium, and treated with serial concentrations of Ag^+ and antibiotics in combinations for 24 h (Table 10).
Five clinical isolated MDR Gram-negative strains were grown until an OD600 nm of 0.4, and were diluted 1:1,000 into 100 μl LB medium in 96 micro-well plates. […] The cultures treated with the same serial dilutions of 100 μl ebselen and silver nitrate were used as the positive control.

[2] = test system: AB-1: Acinetobacter baumannii H#
Experimental: (§1) There are five most difficult-to-treat MDR Gram-negative pathogen species in the clinic, which are also typical GSH-positive bacteria: Klebsiella pneumonia, Acinetobacter baumannii, Pseudomonas aeruginosa, Enterobacter cloacae and Escherichia coli. Two strains of each species were isolated, overnight cultures were diluted 1:1000 times in LB medium, and treated with Ag^+ with a serial concentration of ebselen in combination for 16 h. […] Among these five species, A. baumannii and E. cloacae are very readily formed drug-resistant strains, which are needed to be treated by or the fourth-generation cephalosporin in the clinic, including imipenem, cefepime, and cefotaxime, etc.
(§2) Ten clinical isolated MDR Gram-negative (GSH-positive) strains were grown until an OD600 nm of 0.4 and were diluted 1:100 into 100 μl of LB medium in 96 micro-well plates. Serial dilutions of 100 μl ebselen and AgNO3 were added to the individual wells. […] The culture treated with 0.8% (v/v) DMSO was used as a control.

ECL-2: E. cloacae 2301# = test system: ECL-2: E. cloacae 2301#
Experimental: as §1, §2

[3] = test system: KP-1: Klebsiella pneumoniae subsp. pneumoniae 13#
Experimental: as §1, §2

ECO-3: E. coli ZY-1 = test system: ECO-3: E. coli ZY-1
Experimental: as §1, §2

[4] = test system: PA-2: P. aeruginosa 0009#
Experimental: as §1, §2

[5] = test system: KP-2: K. pneumoniae subsp. pneumoniae 0322#
Experimental: as §1, §2

ECO-2: E. coli 2219# = test system: ECO-2: E. coli 2219#
Experimental: as §1, §2

reduced E. coli Trx1 = reduced E. coli Trx1 (Escherichia coli, UniProt P0AA25); settings: excitation 280 nm
Sequence of reduced E. coli Trx1 (P0AA25 whole entry): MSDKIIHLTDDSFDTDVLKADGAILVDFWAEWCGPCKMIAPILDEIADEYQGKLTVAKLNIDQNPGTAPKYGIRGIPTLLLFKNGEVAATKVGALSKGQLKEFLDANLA
Experimental: Pure recombinant 100 nM TrxR, and 5 μM Trx mixture were incubated with AgNO3 solution in the presence of 200 μM NADPH, and then their activities were detected by DTNB reduction assay. FIG. 4B is a fluorescent spectra of a complex between reduced E. coli 10 μM Trx1 with AgNO3. Reduced 10 μM E. coli Trx1 protein was incubated with a serial concentration of AgNO3 solution and the fluorescent spectra was detected with an excitation wavelength at 280 nm. Oxidized Trx1 (Trx-S2) was used as a control. […] After the treatment described in (B), Trx activity was assayed by a DTNB method in the presence of E. coli Trx1. […] Silver-inhibited E. coli Trx1 was passed through a desalting column to remove small molecules and then Trx activity was measured. E. coli Trx1 without the inhibition was used as a control.
Fluorescent Spectra of reduced E. coli Trx with Silver were recorded at 10 μM in a PerkinElmer Enspire multilabel recorder using an excitation at 280 nm.

E. coli Trx1 = E. coli Trx1 (Escherichia coli, UniProt P0AA25)
Sequence of E. coli Trx1 (P0AA25 2-109): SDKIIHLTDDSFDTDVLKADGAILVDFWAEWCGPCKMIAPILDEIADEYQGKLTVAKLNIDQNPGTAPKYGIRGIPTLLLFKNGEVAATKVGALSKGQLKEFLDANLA
Experimental: (§3) Since ebselen is a known reversible competitive inhibitor of bacterial TrxR, the effect of Ag^+ on the activity of E. coli TrxR and Trx was investigated.
(§4) Inhibition of recombinant bacterial TrxR by Silver was performed by using E. coli enzyme. The experiments were performed with 96 micro-well plates in the solution containing 50 mM Tris.HCl (pH 7.5), 200 μM NADPH, 1 mM EDTA, 1 mM DTNB, in the presence of 5 μM E. coli Trx. The absorbance at 412 nm was measured for 5 min with a VERSA micro-well plate reader and the slope of initial 2 min was used to represent TrxR activity. The Trx activity was detected by this method, coupled with the use of 100 nM E. coli TrxR instead of 5 μM E. coli Trx in the reaction mixture.

E. coli TrxR = E. coli TrxR (Escherichia coli, UniProt P0A9P4)
Sequence of E. coli TrxR (P0A9P4 2-321 limits assumed): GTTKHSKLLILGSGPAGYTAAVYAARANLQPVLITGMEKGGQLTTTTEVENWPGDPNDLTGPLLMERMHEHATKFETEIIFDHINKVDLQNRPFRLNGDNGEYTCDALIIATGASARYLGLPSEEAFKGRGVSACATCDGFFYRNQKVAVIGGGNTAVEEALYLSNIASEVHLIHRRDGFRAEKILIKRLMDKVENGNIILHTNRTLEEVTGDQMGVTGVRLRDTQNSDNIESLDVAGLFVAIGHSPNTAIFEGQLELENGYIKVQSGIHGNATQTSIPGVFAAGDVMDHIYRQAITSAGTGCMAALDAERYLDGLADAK
Experimental: as §3, §4

In the case of `O=c1c2ccccc2[se]n1-c1ccccc1` [ebselen, 2-phenyl-1,2-benzisoselenazol-3(2H)-one], the “MIC of silver in the presence of different antibiotics” value [1] is reported as 40 µM.
`O=[N+]([O-])[O-].[Ag+]` [silver, silver nitrate] was tested, and the “MIC of silver in the presence of ebselen” value ([2]; Ebselen 0 μM) was 80 µM, the “MIC of silver in the presence of ebselen” value ([2]; Ebselen 1 μM) was 80 µM and the “MIC of silver in the presence of ebselen” value ([2]; Ebselen 2 μM) was 40 µM. For the same molecule, the “MIC of silver in the presence of ebselen” value ([2]; Ebselen 4 μM) was 10 µM, the “MIC of silver in the presence of ebselen” value (ECL-2: E. cloacae 2301#; Ebselen 0 μM) was 80 µM and the “MIC of silver in the presence of ebselen” value (ECL-2: E. cloacae 2301#; Ebselen 1 μM) was 40 µM. The “MIC of silver in the presence of ebselen” value (ECL-2: E. cloacae 2301#; Ebselen 2 μM) was 40 µM, the “MIC of silver in the presence of ebselen” value (ECL-2: E. cloacae 2301#; Ebselen 4 μM) was 10 µM and the “MIC of silver in the presence of ebselen” value ([3]; Ebselen 0 μM) was 80 µM. For the same molecule, the “MIC of silver in the presence of ebselen” value ([3]; Ebselen 1 μM) was 80 µM, the “MIC of silver in the presence of ebselen” value ([3]; Ebselen 2 μM) was 40 µM and the “MIC of silver in the presence of ebselen” value ([3]; Ebselen 4 μM) was 10 µM. For the same molecule, the “MIC of silver in the presence of ebselen” value (ECO-3: E. coli ZY-1; Ebselen 0 μM) was 40 µM, the “MIC of silver in the presence of ebselen” value (ECO-3: E. coli ZY-1; Ebselen 1 μM) was 40 µM and the “MIC of silver in the presence of ebselen” value (ECO-3: E. coli ZY-1; Ebselen 2 μM) was 20 µM. The “MIC of silver in the presence of ebselen” value (ECO-3: E. coli ZY-1; Ebselen 4 μM) was 10 µM, the “MIC of silver in the presence of ebselen” value ([4]; Ebselen 0 μM) was 80 µM and the “MIC of silver in the presence of ebselen” value ([4]; Ebselen 1 μM) was 80 µM. The “MIC of silver in the presence of ebselen” value ([4]; Ebselen 2 μM) was 40 µM, the “MIC of silver in the presence of ebselen” value ([4]; Ebselen 4 μM) was 20 µM and the “MIC of silver in the presence of ebselen” value ([5]; Ebselen 0 μM) was 80 µM. For the same molecule, the “MIC of silver in the presence of ebselen” value ([5]; Ebselen 1 μM) was 40 µM, the “MIC of silver in the presence of ebselen” value ([5]; Ebselen 2 μM) was 20 µM and the “MIC of silver in the presence of ebselen” value ([5]; Ebselen 4 μM) was 20 µM. The “MIC of silver in the presence of ebselen” value (ECO-2: E. coli 2219#; Ebselen 0 μM) was 80 µM, the “MIC of silver in the presence of ebselen” value (ECO-2: E. coli 2219#; Ebselen 1 μM) was 80 µM and the “MIC of silver in the presence of ebselen” value (ECO-2: E. coli 2219#; Ebselen 2 μM) was 40 µM. The “MIC of silver in the presence of ebselen” value (ECO-2: E. coli 2219#; Ebselen 4 μM) was 10 µM, the “tryptophan fluorescence intensity of 10 μM Trx1” value (reduced E. coli Trx1; 1-10 μM Ag^+) was “increased the tryptophan fluorescence intensity” and the “fluorescent intensity of 10 μM Trx1” value (reduced E. coli Trx1; 20-100 μM Ag^+) was “decreased”. For the same molecule, the “reversibility of the inhibition of Trx1” value (E. coli Trx1; Trx1 activity after desalting) was “irreversible”, the “activity of Trx” value (E. coli Trx1; along with the increase of Ag^+ concentration, 10 μM Trx1) was “decreased” and the “inhibitory efficiency toward TrxR” value (E. coli TrxR; in the presence of reduced E. coli Trx1) was “decreased”. For the same molecule, the IC50 (E. coli TrxR; read-out: IC50 on E. coli TrxR, 100 nM NADPH-pre-incubated E. coli TrxR) was roughly 50 nM.

From patent US10653717B2, “Antibiotic compositions” (priority 2016, dated 2020)
